Laboratory results as given in PubChem BioAssay AID192 (DTP/NCI, 2004).
Values joined by “and” are separate entries in the source; they are usually repeats but may differ in a detail not shown here. Identical values can stand only once. Inconclusive results and toxic doses are left out.

System: BDF1 mice, B16 melanoma ip, median survival T/C
Test: NCI In Vivo Anticancer Drug Screen. Data for tumor model B16 Melanoma (intraperitoneal) in B6D2F1 (BDF1) mice
Conditions: endpoint: median survival time, higher = longer survival
Method in brief: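 Each result divides a survival or tumor-size measurement in the compound-treated group by the same measurement in the vehicle group.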

[1] = dose: 25.0 mg/kg/injection, schedule: Q01DX009 (ip), vehicle: Klucel (hydroxypropylcellulose) (HPC)
[2] = dose: 50.0 mg/kg/injection, schedule: Q01DX009 (ip), vehicle: Klucel (hydroxypropylcellulose) (HPC)
[3] = dose: 6.25 mg/kg/injection, schedule: Q01DX009 (ip), vehicle: saline with Tween-80
[4] = dose: 12.5 mg/kg/injection, schedule: Q01DX009 (ip), vehicle: saline with Tween-80
[5] = dose: 25.0 mg/kg/injection, schedule: Q01DX009 (ip), vehicle: saline with Tween-80
[6] = dose: 100.0 mg/kg/injection, schedule: Q01DX009 (ip), vehicle: Klucel (hydroxypropylcellulose) (HPC)
[7] = dose: 200.0 mg/kg/injection, schedule: Q01DX009 (ip), vehicle: Klucel (hydroxypropylcellulose) (HPC)
[8] = dose: 400.0 mg/kg/injection, schedule: Q01DX009 (ip), vehicle: Klucel (hydroxypropylcellulose) (HPC)
[9] = dose: 12.5 mg/kg/injection, schedule: Q01DX009 (ip), vehicle: Klucel (hydroxypropylcellulose) (HPC)
[10] = dose: 6.25 mg/kg/injection, schedule: Q01DX009 (ip), vehicle: Klucel (hydroxypropylcellulose) (HPC)
[11] = dose: 3.12 mg/kg/injection, schedule: Q01DX009 (ip), vehicle: water
[12] = dose: 6.25 mg/kg/injection, schedule: Q01DX009 (ip), vehicle: water
[13] = dose: 12.5 mg/kg/injection, schedule: Q01DX009 (ip), vehicle: water
[14] = dose: 1.56 mg/kg/injection, schedule: Q01DX009 (ip), vehicle: Klucel (hydroxypropylcellulose) (HPC)
[15] = dose: 100.0 mg/kg/injection, schedule: Q01DX009 (ip), vehicle: saline with Tween-80
[16] = dose: 200.0 mg/kg/injection, schedule: Q01DX009 (ip), vehicle: saline with Tween-80
[17] = dose: 50.0 mg/kg/injection, schedule: Q01DX009 (ip), vehicle: saline with Tween-80
[18] = dose: 400.0 mg/kg/injection, schedule: Q01DX009 (ip), vehicle: saline with Tween-80

CCOc1c(Br)cc(Br)cc1/C=N/NS(=O)(=O)c1ccc(C)cc1
T/C (dose: 12.5 mg/kg/injection, schedule: Q04DX003 (ip), vehicle: Klucel (hydroxypropylcellulose) (HPC)): 102 % of control
T/C [1]: 91 % of control
T/C (dose: 25.0 mg/kg/injection, schedule: Q04DX003 (ip), vehicle: Klucel (hydroxypropylcellulose) (HPC)): 107 % of control
T/C [2]: 97 % of control
T/C (dose: 50.0 mg/kg/injection, schedule: Q04DX003 (ip), vehicle: Klucel (hydroxypropylcellulose) (HPC)): 104 % of control
T/C (dose: 170.0 mg/kg/injection, schedule: Q04DX003 (ip), vehicle: Klucel (hydroxypropylcellulose) (HPC)): 97 % of control

CC(CN(C)C)CN1c2ccccc2Sc2ccc(C(F)(F)F)cc21 (stereo not drawn)
T/C (dose: 0.78 mg/kg/injection, schedule: Q01DX009 (ip), vehicle: saline): 109 % of control
T/C (dose: 1.56 mg/kg/injection, schedule: Q01DX009 (ip), vehicle: saline): 105 % of control
T/C (dose: 3.12 mg/kg/injection, schedule: Q01DX009 (ip), vehicle: saline): 116 % of control
T/C (dose: 6.25 mg/kg/injection, schedule: Q01DX009 (ip), vehicle: saline): 103 % of control
T/C (dose: 12.5 mg/kg/injection, schedule: Q01DX009 (ip), vehicle: saline): 103 % of control

COC(=O)C(CCCCN=Cc1ccccc1O)N=Cc1ccccc1O.[Ni] (stereo not drawn)
T/C [3]: 100 % of control
T/C [4]: 90 % of control
T/C (dose: 12.5 mg/kg/injection, schedule: Q04DX003 (ip), vehicle: saline with Tween-80): 95 % of control
T/C [5]: 95 % of control
T/C (dose: 25.0 mg/kg/injection, schedule: Q04DX003 (ip), vehicle: saline with Tween-80): 93 % of control

Clc1nnc(Nc2ccccc2)c2ccccc12
T/C [6]: 92 % of control
T/C [7]: 97 % of control
T/C [8]: 86 % of control

CC(Cc1ccccc1)NC(=O)/C=C/C(=O)O (stereo not drawn)
T/C [6]: 95 % of control
T/C [7]: 91 % of control
T/C [8]: 89 % of control

C=C1C(=O)OC2CC1C(OC(=O)/C=C/c1ccccc1)C/C(C)=C/CC/C(C)=C/CCC2(C)O (stereo not drawn)
T/C [9]: 105 % of control
T/C [1]: 92 % of control
T/C [2]: 101 % of control

COc1cc2ccc3c(c2cc1OC)N(C)C(OC)c1cc2c(cc1-3)OCO2 (stereo not drawn)
T/C (dose: 10.0 mg/kg/injection, schedule: Q01DX009 (ip), vehicle: saline with Tween-80): 119 % of control

Nc1nc(Cl)c2[nH]cnc2n1
T/C (dose: 0.09 mg/kg/injection, schedule: Q01DX009 (ip), vehicle: other): 114 % of control
T/C (dose: 0.19 mg/kg/injection, schedule: Q01DX009 (ip), vehicle: other): 113 % of control
T/C (dose: 0.38 mg/kg/injection, schedule: Q01DX009 (ip), vehicle: other): 105 % of control
T/C (dose: 0.75 mg/kg/injection, schedule: Q01DX009 (ip), vehicle: other): 88 % of control and 111 % of control
T/C (dose: 1.5 mg/kg/injection, schedule: Q01DX009 (ip), vehicle: other): 110 % of control
T/C (dose: 3.0 mg/kg/injection, schedule: Q01DX009 (ip), vehicle: other): 101 % of control and 108 % of control
T/C (dose: 6.0 mg/kg/injection, schedule: Q01DX009 (ip), vehicle: other): 89 % of control
T/C (dose: 50.0 mg/kg/injection, schedule: Q01DX009 (ip), vehicle: other): 93 % of control

O=C(NNCc1ccccc1)c1ccccn1
T/C [10]: 90 % of control
T/C [1]: 90 % of control
T/C [2]: 88 % of control and 100 % of control

CC(C(=O)O)C(=O)O.[NH-]CC[NH-].[Pt+2]
T/C [11]: 150 % of control
T/C [12]: 162 % of control
T/C [13]: 179 % of control
T/C (dose: 25.0 mg/kg/injection, schedule: Q01DX009 (ip), vehicle: water): 211 % of control

CCNC(C)(C)C(SSSC(c1ccc(Cl)cc1)C(C)(C)NCC)c1ccc(Cl)cc1 (stereo not drawn)
T/C [10]: 108 % of control
T/C [9]: 94 % of control
T/C [1]: 89 % of control and 94 % of control

O=C1NC(c2cccc3ccccc23)Nc2ccccc21 (stereo not drawn)
T/C (dose: 15.6 mg/kg/injection, schedule: Q01DX009 (ip), vehicle: Klucel (hydroxypropylcellulose) (HPC)): 97 % of control
T/C (dose: 31.2 mg/kg/injection, schedule: Q01DX009 (ip), vehicle: Klucel (hydroxypropylcellulose) (HPC)): 100 % of control
T/C (dose: 62.5 mg/kg/injection, schedule: Q01DX009 (ip), vehicle: Klucel (hydroxypropylcellulose) (HPC)): 104 % of control
T/C (dose: 125.0 mg/kg/injection, schedule: Q01DX009 (ip), vehicle: Klucel (hydroxypropylcellulose) (HPC)): 108 % of control

C1CC[N-]CC1.[Cl][Pt+2][Cl].[NH-]C1CC1
T/C [11]: 105 % of control
T/C (dose: 3.13 mg/kg/injection, schedule: Q01DX009 (ip), vehicle: water): 151 % of control
T/C [12]: 152 % of control
T/C [13]: 119 % of control

c1ccc(C[P+](c2ccccc2)(c2ccccc2)c2ccccc2)cc1
T/C (dose: 2.5 mg/kg/injection, schedule: Q01DX009 (ip), vehicle: other): 92 % of control
T/C (dose: 5.0 mg/kg/injection, schedule: Q01DX009 (ip), vehicle: other): 94 % of control
T/C (dose: 10.0 mg/kg/injection, schedule: Q01DX009 (ip), vehicle: other): 94 % of control
T/C (dose: 20.0 mg/kg/injection, schedule: Q01DX009 (ip), vehicle: other): 89 % of control

Cl[C](Cl)(Cl)[Hg][c]1ccccc1
T/C (dose: 0.19 mg/kg/injection, schedule: Q01DX009 (ip), vehicle: saline): 91 % of control
T/C (dose: 0.38 mg/kg/injection, schedule: Q01DX009 (ip), vehicle: saline): 92 % of control
T/C (dose: 1.5 mg/kg/injection, schedule: Q01DX009 (ip), vehicle: saline): 89 % of control

NC(=O)Nc1cc(NC(N)=O)cc(N(CCCl)CCCl)c1
T/C [14]: 88 % of control
T/C (dose: 3.13 mg/kg/injection, schedule: Q01DX009 (ip), vehicle: Klucel (hydroxypropylcellulose) (HPC)): 101 % of control
T/C [10]: 91 % of control
T/C [9]: 96 % of control
T/C [1]: 108 % of control
T/C [2]: 98 % of control

Nc1cc(S(N)(=O)=O)ccc1SSc1ccc(S(N)(=O)=O)cc1N
T/C [15]: 95 % of control
T/C [16]: 93 % of control

S=C(Nc1ccccn1)c1ccccn1
T/C [4]: 92 % of control
T/C [5]: 112 % of control
T/C [17]: 94 % of control
T/C [15]: 93 % of control

S=c1[nH]c2ccccc2[nH]1
T/C [14]: 91 % of control
T/C (dose: 3.12 mg/kg/injection, schedule: Q01DX009 (ip), vehicle: Klucel (hydroxypropylcellulose) (HPC)): 90 % of control
T/C [10]: 95 % of control
T/C [9]: 86 % of control
T/C [1]: 100 % of control

Cc1cccc(C(N)=S)n1
T/C [2]: 110 % of control
T/C [6]: 100 % of control

C[N+](C)(C)CCOC(=O)c1ccccc1
T/C [15]: 91 % of control
T/C [16]: 93 % of control
T/C [18]: 91 % of control

O=C(O)CC[S-].[Ag+]
T/C (dose: 25.0 mg/kg/injection, schedule: Q01DX009 (ip), vehicle: saline): 99 % of control
T/C (dose: 50.0 mg/kg/injection, schedule: Q01DX009 (ip), vehicle: saline): 111 % of control
T/C (dose: 100.0 mg/kg/injection, schedule: Q01DX009 (ip), vehicle: saline): 97 % of control

CCCCCCCCCCCCNCCC#N
T/C [3]: 100 % of control
T/C [4]: 92 % of control
T/C [5]: 91 % of control and 100 % of control
T/C [17]: 89 % of control

C/C=C(\C)C(=O)OC1C(C)C2(O)C(C=C(CO)CC3(O)C(=O)C(C)=CC32)C2C(C)(C)C12OC(=O)CCCCCCCCC (stereo not drawn)
T/C (dose: 0.13 mg/kg/injection, schedule: Q01DX009 (ip), vehicle: saline + alcohol): 102 % of control and 104 % of control
T/C (dose: 0.25 mg/kg/injection, schedule: Q01DX009 (ip), vehicle: saline + alcohol): 92 % of control and 94 % of control
T/C (dose: 0.5 mg/kg/injection, schedule: Q01DX009 (ip), vehicle: saline + alcohol): 92 % of control

CC1(C)N=C(N)N=C(N)N1c1ccc(CCCCc2cccc(S(=O)(=O)F)c2)c(Cl)c1
T/C (dose: 8.0 mg/kg/injection, schedule: Q01DX009 (ip), vehicle: saline): 108 % of control
T/C (dose: 12.0 mg/kg/injection, schedule: Q01DX009 (ip), vehicle: saline): 116 % of control
T/C (dose: 18.0 mg/kg/injection, schedule: Q01DX009 (ip), vehicle: saline): 118 % of control
T/C (dose: 27.0 mg/kg/injection, schedule: Q01DX009 (ip), vehicle: saline): 124 % of control

CCc1cc(C)cc(OC(=O)Nc2ccc(Cl)c(Cl)c2)c1
T/C [15]: 101 % of control
T/C [16]: 92 % of control
T/C [18]: 87 % of control
